Each structure is given as a SMILES string. *1 amine or outer side, *2 acyl side, *3 side chain or, on linkers, in order; H or OH if unused. Where a SMILES comes first, the peptide text is derived from it. [ ]: non-standard residue; d: D form. Trp(βS-Me,4-F) = C[C@@H](c1c[nH]c2cccc(F)c12)[C@H](N)C(=O)O; Bip(4'-COOH) = N[C@@H](Cc1ccc(-c2ccc(C(=O)O)cc2)cc1)C(=O)O; X1 = CC(=O)N1CCN(c2ccc(C[C@H](N[*:1])C(=O)[*:2])cn2)CC1; 1Nal(3S-Me) = C[C@@H](c1cccc2ccccc12)[C@H](N)C(=O)O; Trp(6-Cl) = N[C@@H](Cc1c[nH]c2cc(Cl)ccc12)C(=O)O; Phe(4-COOH) = N[C@@H](Cc1ccc(C(=O)O)cc1)C(=O)O; Trp(7-F) = N[C@@H](Cc1c[nH]c2c(F)cccc12)C(=O)O; Trp(7-Me) = Cc1cccc2c(C[C@H](N)C(=O)O)c[nH]c12; h3Pal(5-CN) = N#Cc1cncc(CC[C@H](N)C(=O)O)c1; Pro(4R-NH2) = N[C@H]1CN[C@H](C(=O)O)C1; hTyr = N[C@@H](CCc1ccc(O)cc1)C(=O)O; hCha = N[C@@H](CCC1CCCCC1)C(=O)O; tBuAla = CC(C)(C)C[C@H](N)C(=O)O; dNle = CCCC[C@@H](N)C(=O)O; dNva = CCC[C@@H](N)C(=O)O; Orn = NCCC[C@H](N)C(=O)O; dNMeA = CN[C@H](C)C(=O)O

Broadly, the IC50 is the concentration needed to halve the response being measured.

For the experiment, the target named is T1, Recombinant human IL-1β (Homo sapiens, UniProt P01584).
T1 construct: purchased BioLegend 579404
T1 sequence (P01584 117-269): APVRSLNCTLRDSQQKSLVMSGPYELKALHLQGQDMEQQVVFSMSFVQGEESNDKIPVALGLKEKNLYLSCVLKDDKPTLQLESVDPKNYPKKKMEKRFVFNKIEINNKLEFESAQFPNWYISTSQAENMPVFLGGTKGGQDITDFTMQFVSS
Briefly: IL-6 assay in MRC5 cells: inhibition of IL-1β induced IL-6 secretion (AlphaLISA). The experiment is classed as cell-based. The conditions noted are these: inhibition of IL-1β induced IL-6 secretion in MRC5 cells; read-out: MRC5 IC50. In a few lines:
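IL-1β at 2×EC80 in seeding medium (EMEM, 0.025% BSA) preincubated 1 h at ambient temperature with compound, then 3000 MRC5 cells/well added and incubated overnight at 37 °C, 5% CO2. IL-6 in conditioned medium quantified by AlphaLISA; IC50 from 4-parameter logistic fit.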
As to `CC(=O)N1CCN(c2ccc(C[C@@H]3NC(=O)[C@H](CCc4cncc(C#N)c4)NC(=O)[C@@H](CC(C)C)NC(=O)[C@H](CC(C)C)NC(=O)[C@H](CCCCN)NC(=O)[C@H](Cc4ccc(-c5ccc(C(=O)O)cc5)cc4)NC(=O)CNC(=O)[C@@H](C)N(C)C(=O)[C@H](CC(=O)O)NC(=O)[C@H]([C@@H](C)c4cccc5ccccc45)NC(=O)[C@@H]4C[C@@H](N)CN4C(=O)CNC(=O)[C@H](Cc4ccc(C(=O)O)cc4)NC(=O)[C@H](Cc4c[nH]c5ccccc45)NC3=O)cn2)CC1` [Example 178] (cyclo([X1]W[Phe(4-COOH)]G[Pro(4R-NH2)][1Nal(3S-Me)]D[dNMeA]G[Bip(4'-COOH)]KL[dL][h3Pal(5-CN)])), the IC50 was 19 pM. With `CCCC[C@H]1NC(=O)[C@H](CC(C)C)NC(=O)[C@H](CCCCN)NC(=O)[C@H](Cc2ccc(-c3ccc(C(=O)O)cc3)cc2)NC(=O)CNC(=O)[C@@H](C)N(C)C(=O)[C@H](CC(=O)O)NC(=O)[C@H]([C@@H](C)c2cccc3ccccc23)NC(=O)[C@@H]2C[C@@H](N)CN2C(=O)CNC(=O)[C@H](Cc2ccc(C(=O)O)cc2)NC(=O)[C@H](Cc2c[nH]c3ccccc23)NC(=O)[C@H](Cc2ccc(N3CCN(C(C)=O)CC3)nc2)NC(=O)[C@H](CCc2cncc(C#N)c2)NC1=O` [Example 179] (cyclo([X1]W[Phe(4-COOH)]G[Pro(4R-NH2)][1Nal(3S-Me)]D[dNMeA]G[Bip(4'-COOH)]KL[dNle][h3Pal(5-CN)])), the IC50 stood at 17 pM.

Regarding `CCC[C@H]1NC(=O)[C@H](CC(C)C)NC(=O)[C@H](CCCCN)NC(=O)[C@H](Cc2ccc(-c3ccc(C(=O)O)cc3)cc2)NC(=O)CNC(=O)[C@@H](C)N(C)C(=O)[C@H](CC(=O)O)NC(=O)[C@H]([C@@H](C)c2cccc3ccccc23)NC(=O)[C@@H]2C[C@@H](N)CN2C(=O)CNC(=O)[C@H](Cc2ccc(C(=O)O)cc2)NC(=O)[C@H](Cc2c[nH]c3ccccc23)NC(=O)[C@H](Cc2ccc(N3CCN(C(C)=O)CC3)nc2)NC(=O)[C@H](CCc2cncc(C#N)c2)NC1=O` [Example 180] (cyclo([X1]W[Phe(4-COOH)]G[Pro(4R-NH2)][1Nal(3S-Me)]D[dNMeA]G[Bip(4'-COOH)]KL[dNva][h3Pal(5-CN)])), the IC50 worked out at 21 pM. Regarding `CC(=O)N1CCN(c2ccc(C[C@@H]3NC(=O)[C@H](CCc4cncc(C#N)c4)NC(=O)[C@@H](C)NC(=O)[C@H](CC(C)(C)C)NC(=O)[C@H](CCCCN)NC(=O)[C@H](Cc4ccc(-c5ccc(C(=O)O)cc5)cc4)NC(=O)CNC(=O)[C@@H](C)N(C)C(=O)[C@H](CC(=O)O)NC(=O)[C@H]([C@@H](C)c4cccc5ccccc45)NC(=O)[C@@H]4C[C@@H](N)CN4C(=O)CNC(=O)[C@H](Cc4ccc(C(=O)O)cc4)NC(=O)[C@H](Cc4c[nH]c5ccccc45)NC3=O)cn2)CC1` [Example 181] (cyclo([X1]W[Phe(4-COOH)]G[Pro(4R-NH2)][1Nal(3S-Me)]D[dNMeA]G[Bip(4'-COOH)]K[tBuAla][dA][h3Pal(5-CN)])), the IC50 was found to be 15 pM. Turning to `CC(=O)N1CCN(c2ccc(C[C@@H]3NC(=O)[C@H](CCC4CCCCC4)NC(=O)[C@@H](C)NC(=O)[C@H](CC(C)C)NC(=O)[C@H](CCCN)NC(=O)[C@H](Cc4ccc(-c5ccc(C(=O)O)cc5)cc4)NC(=O)CNC(=O)[C@@H](C)N(C)C(=O)[C@H](CC(=O)O)NC(=O)[C@H]([C@@H](C)c4cccc5ccccc45)NC(=O)[C@@H]4C[C@@H](N)CN4C(=O)CNC(=O)[C@H](Cc4ccc(C(=O)O)cc4)NC(=O)[C@H](Cc4c[nH]c5ccccc45)NC3=O)cn2)CC1` [Example 182] (cyclo([X1]W[Phe(4-COOH)]G[Pro(4R-NH2)][1Nal(3S-Me)]D[dNMeA]G[Bip(4'-COOH)][Orn]L[dA][hCha])), the IC50 amounted to 13 pM. In the case of `CC(=O)N1CCN(c2ccc(C[C@@H]3NC(=O)[C@H](CCc4cncc(C#N)c4)NC(=O)[C@@H](C)NC(=O)[C@H](CC(C)C)NC(=O)[C@H](CCC(N)=O)NC(=O)[C@H](Cc4ccc(-c5ccc(C(=O)O)cc5)cc4)NC(=O)CNC(=O)[C@@H](C)N(C)C(=O)[C@H](CC(=O)O)NC(=O)[C@H]([C@@H](C)c4cccc5ccccc45)NC(=O)[C@@H]4C[C@@H](N)CN4C(=O)CNC(=O)[C@H](Cc4ccc(C(=O)O)cc4)NC(=O)[C@H](Cc4c[nH]c5ccccc45)NC3=O)cn2)CC1` [Example 183] (cyclo([X1]W[Phe(4-COOH)]G[Pro(4R-NH2)][1Nal(3S-Me)]D[dNMeA]G[Bip(4'-COOH)]QL[dA][h3Pal(5-CN)])) it was 13 pM. In the case of `CC(C)C[C@@H]1NC(=O)[C@H](CCCCN)NC(=O)[C@H](Cc2ccc(-c3ccc(C(=O)O)cc3)cc2)NC(=O)CNC(=O)[C@@H](C)N(C)C(=O)[C@H](CC(=O)O)NC(=O)[C@H]([C@@H](C)c2c[nH]c3cccc(F)c23)NC(=O)[C@@H]2C[C@@H](N)CN2C(=O)CNC(=O)[C@H](Cc2ccc(C(=O)O)cc2)NC(=O)[C@H](Cc2c[nH]c3cc(Cl)ccc23)NC(=O)[C@H](Cc2ccc(-c3ccc(C(=O)O)cc3)cc2)NC(=O)[C@H](CCc2ccc(O)cc2)NC(=O)[C@@H](C)NC1=O` [Example 184] (cyclo([Bip(4'-COOH)][Trp(6-Cl)][Phe(4-COOH)]G[Pro(4R-NH2)][Trp(βS-Me,4-F)]D[dNMeA]G[Bip(4'-COOH)]KL[dA][hTyr])) it was 18 pM; in that of `CC(C)C[C@@H]1NC(=O)[C@H](CCCCN)NC(=O)[C@H](Cc2ccc(-c3ccc(C(=O)O)cc3)cc2)NC(=O)CNC(=O)[C@@H](C)N(C)C(=O)[C@H](CC(=O)O)NC(=O)[C@H]([C@@H](C)c2c[nH]c3cccc(F)c23)NC(=O)[C@@H]2C[C@@H](N)CN2C(=O)CNC(=O)[C@H](Cc2ccc(C(=O)O)cc2)NC(=O)[C@H](Cc2c[nH]c3c(F)cccc23)NC(=O)[C@H](Cc2ccc(-c3ccc(C(=O)O)cc3)cc2)NC(=O)[C@H](CCc2ccc(O)cc2)NC(=O)[C@@H](C)NC1=O` [Example 185] (cyclo([Bip(4'-COOH)][Trp(7-F)][Phe(4-COOH)]G[Pro(4R-NH2)][Trp(βS-Me,4-F)]D[dNMeA]G[Bip(4'-COOH)]KL[dA][hTyr])), 24 pM; in that of `Cc1cccc2c(C[C@@H]3NC(=O)[C@H](Cc4ccc(-c5ccc(C(=O)O)cc5)cc4)NC(=O)[C@H](CCc4ccc(O)cc4)NC(=O)[C@@H](C)NC(=O)[C@H](CC(C)C)NC(=O)[C@H](CCCCN)NC(=O)[C@H](Cc4ccc(-c5ccc(C(=O)O)cc5)cc4)NC(=O)CNC(=O)[C@@H](C)N(C)C(=O)[C@H](CC(=O)O)NC(=O)[C@H]([C@@H](C)c4c[nH]c5cccc(F)c45)NC(=O)[C@@H]4C[C@@H](N)CN4C(=O)CNC(=O)[C@H](Cc4ccc(C(=O)O)cc4)NC3=O)c[nH]c12` [Example 186] (cyclo([Bip(4'-COOH)][Trp(7-Me)][Phe(4-COOH)]G[Pro(4R-NH2)][Trp(βS-Me,4-F)]D[dNMeA]G[Bip(4'-COOH)]KL[dA][hTyr])), 38 pM.

Turning to `CC(=O)NCCCC[C@H]1NC(=O)[C@H](CC(C)C)NC(=O)[C@H](CCCCN)NC(=O)[C@H](Cc2ccc(-c3ccc(C(=O)O)cc3)cc2)NC(=O)CNC(=O)[C@@H](C)N(C)C(=O)[C@H](CC(=O)O)NC(=O)[C@H]([C@@H](C)c2c[nH]c3cccc(F)c23)NC(=O)[C@@H]2C[C@@H](N)CN2C(=O)CNC(=O)[C@H](Cc2ccc(C(=O)O)cc2)NC(=O)[C@H](Cc2c[nH]c3ccccc23)NC(=O)[C@H](Cc2ccc(-c3ccc(C(=O)O)cc3)cc2)NC(=O)[C@H](CCc2ccc(O)cc2)NC1=O` [Example 187] (cyclo([Bip(4'-COOH)]W[Phe(4-COOH)]G[Pro(4R-NH2)][Trp(βS-Me,4-F)]D[dNMeA]G[Bip(4'-COOH)]KL[dK](Ac)[hTyr])), the IC50 was determined as 9 pM.

The values are drawn from US20230406885A1, “CYCLIC PEPTIDES FOR TRAPPING INTERLEUKIN-1 BETA” (MERCK SHARP & DOHME LLC, priority 2022, published 2023).
